Reference: ChEMBL document CHEMBL5113475, “10-Alkoxy-anthracenyl-isoxazole analogs have sub-micromolar activity against a Glioblastoma multiforme cell line” (Bioorg Med Chem, 2022)
The source made the active and inactive calls. No cut-off for these calls is given here.

What was measured:
SNB-19 = assay: Antitumor activity against human SNB-19 cells assessed as cell growth inhibition measured after 24 hrs by MTT colorimetric assay; assay type: functional, cell-based; conditions: SNB-19, 24 h
Quadruplex DNA = assay: Stabilization of c-Myc G-quadruplex DNA (unknown origin ) assessed as increase in melting temperature at 2 equivalent by CD spectroscopy; assay type: nucleic-acid assay; conditions: dose 2.0 equiv

| Activity (Quadruplex DNA) | SMILES | IC50 (SNB-19) [µM] |
| --- | --- | --- |
| – | COc1c2ccccc2c(-c2noc(C)c2C(=O)Nc2cc(C(=O)N(CCCN(C)C)CCCN(C)C)n(C)c2)c2ccccc12 | 7.77 |
| – | COc1ccc2c(OC)c3ccccc3c(-c3noc(C)c3C(=O)Nc3cc(C(=O)N(CCCN(C)C)CCCN(C)C)n(C)c3)c2c1 | 4.8 |
| – | Cc1onc(-c2c3ccccc3c(Oc3ccc4ccccc4c3)c3ccccc23)c1C(=O)Nc1cc(C(=O)N(CCCN(C)C)CCCN(C)C)n(C)c1 | 3.1 |
| – | Cc1onc(-c2c3ccccc3c(Oc3cccc4ccccc34)c3ccccc23)c1C(=O)Nc1cc(C(=O)N(CCCN(C)C)CCCN(C)C)n(C)c1 | 1.07 |
| Active | Cc1onc(-c2c3ccccc3c(Oc3ccc(-c4ccccc4)cc3)c3ccccc23)c1C(=O)Nc1cc(C(=O)N(CCCN(C)C)CCCN(C)C)n(C)c1 | 0.58 |
| – | COc1ccc2c(OC)c3ccccc3c(-c3noc(C)c3C(=O)Nc3cc(C(=O)N(CCCN(C)C)CCCN(C)C)n(C)c3)c2c1Cl | 12.6 |
| – | Cc1onc(-c2c3ccccc3c(Oc3ccccc3)c3ccccc23)c1C(=O)Nc1cc(C(=O)N(CCCN(C)C)CCCN(C)C)n(C)c1 | 1.03 |
